Source: patent US20260293937A1, “SHRIMP FEED AND METHODS OF USE THEREOF” (Organicin Scientific, Inc., priority 2023, published 2026)
No end group written: not given here.

How the values were obtained:
[1] = test system: brine shrimp (Artemia salina); experiment: Brine shrimp toxicity of EDTA (Example 5); assay type: in vivo; conditions: for mortality at 20000 µM: Artemia salina, 20 mM; for mortality: concentrations less than or equal to 400 µM
Description: This Example describes the toxicity and efficacy of EDTA in reducing pathogenesis and promoting survival of shrimp. Brine shrimp (Artemia salina) were utilized as a model organism to simulate potential impacts on Pacific whiteleg shrimp (Penaeus vannamei).
Artemia salina (a species of brine shrimp) were used. Additional materials included: ethylenediaminetetraacetic acid (EDTA; 99% pure) powder (USB Corporation Instant Ocean (Instant Ocean Spectrum Brands. Blacksburg, VA); and Artemia salina eggs were used.
Artemia salina eggs were hatched in artificial seawater (Instant Ocean) under controlled conditions. Newly hatched brine shrimp were then exposed to varying concentrations of EDTA in experimental tanks. A separate set of tanks was used for each concentration of EDTA (20 mM, 400 uM, 200 uM, and 100 uM).
Control tanks treated with saline water were prepared to observe the natural behavior and survival rate of Artemia salina without EDTA exposure.
Brine shrimp were divided into different tanks for exposure to varying concentrations (20 mM, 400 uM, 200 uM, and 100 uM) of EDTA.
Mortality and behavior of brine shrimp were recorded at 24 and 48 hours post-exposure.

[2] = test system: Vibrio parahaemolyticus (VPX); experiment: Zone of inhibition, Nisin with and without EDTA (Example 6); assay type: cell-based; conditions: 4.05 mg/mL Nisin in CAB, with or without 20.8 mM EDTA
Procedure: (§1) ImmuCell Nisin A (96% pure) suspended in citric acid buffer (pH 3.4) at 4.05 mg/mL (ImmuCell, Portland, ME); Nisin A (Nissen®-A; 10% pure powder, Siveele, Breda, Netherlands): Citric Acid Buffer (CAB) pH=3.4; 60 mm Petri Dishes; Laboratory control strain of Staphylococcus aureus (“SAI”), experimental strains of Escherichia coli (“ECY” and “ECX”) and Vibrio parahaemolyticus (“VPY”, and “VPX”); and ethylenediaminetetraacetic acid (EDTA: 99% pure) powder (USB Corporation) were used.
(§2) On the day before the experiment, stocks of Vibrio parahaemolyticus, Staphylococcus aureus, and Escherichia coli were prepared. An inoculation loop was sterilized, cooled, and used to extract cells, which were then cultured in nutrient broth at 37° C. for 16 to 20 hours. The bacterial density was adjusted to approximately 10^7 to 10^8 CFU/mL. Subsequently, 100 μL of each culture, normalized to about 10^6 to 10^7 CFU/mL, was evenly spread on agar plates using sterile glass beads, creating a uniform bacterial lawn. Four identical lawns were prepared for each bacterial type to ensure replicative testing of treatments.
(§3) Two forms of Nisin, 96% pure Nisin (Immucell) and 10% pure Niseen (Sivele), were prepared in citric acid buffer (CAB) at a concentration of 4.05 mg/mL. To assess synergistic effects, EDTA was added to each Nisin solution to achieve a final concentration of 20.8 mM.
(§4) […] of each treatment formulation were spotted onto the prepared bacterial lawns. These plates were then incubated at 37° C. for 16 to 20 hours to allow for bacterial growth and ZOI formation.
(§5) The ZOI were observed and measured in millimeters to measure the degree of bacterial growth suppression.

[3] = test system: Vibrio parahaemolyticus (VPY); experiment: as above; assay type: cell-based; conditions: 4.05 mg/mL Nisin in CAB, with or without 20.8 mM EDTA
Procedure: as §1, §2, §3, §4, §5

[4] = test system: Staphylococcus aureus (SA1); experiment: as above; assay type: cell-based; conditions: 4.05 mg/mL Nisin in CAB, with or without 20.8 mM EDTA
Procedure: as §1, §2, §3, §4, §5

Escherichia coli (EC-18) = experiment: Zone of inhibition on agar plates (Example 4); assay type: cell-based; conditions: for concentration with no killing / concentration with reduced growth / killing down to a concentration: pre-purification
Procedure: (§6) ImmuCell Nisin A (96% pure) suspended in citric acid buffer (pH-3.4) at 4.86 mg/mL (ImmuCell, Portland, ME); Nisin A (Nissen®-A; 10% pure powder, Siveele, Breda, Netherlands): Nisin Z (26.7% pure) powder (Handry, Brussels, Belgium): Citric Acid Buffer (CAB) pH=3.4; Distilled H2O (dH2O); Instant Ocean (Instant Ocean Spectrum Brands, Blacksburg. VA): Artemia salina eggs: 60 mm Petri Dishes; Laboratory control strains of Staphylococcus aureus and Escherichia coli (“SA1” and “EC-18,” respectively): 15 mL Falcon Tubes; and Slide-A-Lyzer Dialysis Flask, 2K MWCO, 250 mL (Thermo Scientific, Rockford, IL) were used.
(§7) Nisin variants (Nisin A, Nisin Z, and ImmuCell Nisin A) were dissolved in either citric acid buffer (CAB, pH 3.4) for Nisin A or dH2O for Nisin Z to make a stock solution of 4.86 mg/mL. Serial dilutions were performed to achieve the different concentrations (4.86 mg/mL to 0.005 mg/mL) for the experiments.
(§8) Parallel to the toxicity tests, antibacterial efficacy was evaluated by applying Nisin solutions (before and after basic purification via Slide-A-Lyzer Dialysis) onto agar plates pre-inoculated with laboratory control strains Staphylococcus aureus (“SA1”) and Escherichia coli (“EC-18”). Zones of inhibition were measured 24 hours post-incubation at 37° C.
(§9) Mortality and behavior of the brine shrimp were recorded at 24 and 48 hours post-exposure. For the antimicrobial tests, the diameter of inhibition zones on agar plates containing the laboratory control strains were measured and recorded.

[5] = test system: Staphylococcus aureus (SA1); experiment: Zone of inhibition on agar plates (Example 4); assay type: cell-based; conditions: for concentration with no killing / concentration with reduced growth / killing down to a concentration: pre-purification
Procedure: as §6, §7, §8, §9

E. coli (ECX) = experiment: Zone of inhibition, Nisin with and without EDTA (Example 6); assay type: cell-based, Escherichia coli; conditions: 4.05 mg/mL Nisin in CAB, with or without 20.8 mM EDTA
Procedure: as §1, §2, §3, §4, §5

E. coli (ECY) = experiment: as above; assay type: cell-based, Escherichia coli; conditions: 4.05 mg/mL Nisin in CAB, with or without 20.8 mM EDTA
Procedure: as §1, §2, §3, §4, §5

[6] = test system: brine shrimp (Artemia salina); experiment: Brine shrimp toxicity of Nisin formulations (Example 4); assay type: in vivo; conditions: for efficacy in reducing mortality in shrimp: Nisin Z (26.7% pure) compared with Nisin A (10% pure)
Procedure: This Example describes the efficacy of various Nisins: Nisin Z, Nisin A, and ImmuCell Nisin A. This experiment assessed the safety and antimicrobial efficacy of various Nisin formulations in treating Vibrio parahaemolyticus infections, a common pathogen in aquaculture environments. Brine shrimp (Artemia salina) were utilized as a model organism to simulate potential impacts on Pacific whiteleg shrimp (Penaeus vannamei).
as §7
Artemia salina eggs were hatched in artificial seawater (Instant Ocean) under controlled conditions. Newly hatched brine shrimp were then exposed to varying concentrations of each Nisin solution in experimental tanks. A separate set of tanks was used for each type of Nisin formulation.
Control tanks (treated with either CAB or saline water) were prepared to observe the natural behavior and survival rate of Artemia salina without Nisin exposure.
Brine shrimp were divided into different tanks for exposure to varying concentrations (2.43 mg/mL, 0.608 mg/mL, 0.152 mg/mL, and 0.038 mg/mL) of Nisin A, Nisin Z, and ImmuCell Nisin A.
as §9

Suspension in dH2O = assay type: physicochemical
Procedure: as §7

[7] = Retention by 2 kDa dialysis membrane; assay type: physicochemical; conditions: water sampled at 4 and 24 hours
Procedure: as §8
Next, the zones of inhibition for Nisin Z pre- and 48 hours post-2 kDa dialysis membrane purification were spotted onto a lawn of a control strain (SA1). […] Water samples were taken to test if any drug was lost at the 4 hour mark and again at the 24 hour mark. […] To remove additional contaminants, additional filtration is performed to purify Nisin Z.

Vibrio parahaemolyticus = experiment: Brine shrimp efficacy challenge trial with and without Nisin (Example 7); assay type: in vivo, Artemia salina; conditions: vs control group exposed to Vibrio parahaemolyticus without Nisin Z; example in present tense
Procedure: Brine shrimp (Artemia salina) are used and are prepared according to methods detailed in Examples 1-6. Additional materials, methods and experimental design may be similar to that described in Examples 1-6. A virulent strain of Vibrio parahaemolyticus is cultured to a concentration of about […], which is used for the challenge. Shrimp groups are divided: one group receives no treatment (as control) and the other group set receives brine infused with Nisin Z (concentration as determined optimal in prior experiments).

[8] = highly acidic conditions, high temperatures, proteases; cited from earlier work
brine shrimp = experiment: Pre- and post-dialysis toxicity assay and Nisin/EDTA toxicity assay (Example 9); assay type: in vivo, Artemia salina; conditions: after 48-hour dialysis; example in present tense
Description: Utilizing materials, methods and experimental designs as described in Examples 1-6, Nisin Z is subjected to a 48-hour dialysis treatment to reduce impurities. The toxicity assay involves exposing brine shrimp to treated and untreated samples of Nisin Z, both alone and in combination with EDTA at a concentration of […].

[9] = all dilutions 4.86 mg/mL-0.005 mg/mL
[10] = unpurified, in dH2O, 0.608 mg/mL

Compound | Diameter (zone of inhibition) [2] [mm] | Diameter (zone of inhibition) [3] [mm] | Diameter (zone of inhibition) [4] [mm] | Diameter (zone of inhibition) (E. coli (ECX)) [mm] | Diameter (zone of inhibition) (E. coli (ECY)) [mm] | efficacy in reducing mortality in shrimp [6] | mortality [6, 10] | concentration with no killing (Escherichia coli (EC-18)) [mg/mL] | concentration with reduced growth (Escherichia coli (EC-18)) [mg/mL] | killing down to a concentration (Escherichia coli (EC-18)) [mg/mL] | concentration with no killing [5] [mg/mL] | concentration with reduced growth [5] [mg/mL] | killing down to a concentration [5] [mg/mL] | suspension with dH2O as solvent (Suspension in dH2O) | further results
O=C(O)CN(CCN(CC(=O)O)CC(=O)O)CC(=O)O [EDTA, ethylenediaminetetraacetic acid] | – | – | – | – | – | – | – | – | – | – | – | – | – | – | mortality at 20000 µM ([1]; 24 hours post-exposure): 100%; mortality at 20000 µM ([1]; 48 hours post-exposure): 100%; mortality ([1]; 24 hours post-exposure): zero mortality; mortality ([1]; 48 hours post-exposure): zero mortality
ImmuCell Nisin A: ImmuCell Nisin A (96% pure) suspended in citric acid buffer (ImmuCell, Portland, ME) (ITSISLCTPGCKTGALMGCNMKTATCHCSIHVSK; cysteine pairing not given here; also: lantibiotic, modifications not placed; UniProt P13068 24-57, looked up) | 4 | 4 | 13 | 10 | 6 | – | – | – | – | – | – | – | – | – | zones of inhibition (Escherichia coli (EC-18); [9]): clear zones of inhibition; zones of inhibition [5, 9]: clear zones of inhibition
Nisin A: Nisin A (Nissen®-A; 10% pure powder, Siveele, Breda, Netherlands) (ITSISLCTPGCKTGALMGCNMKTATCHCSIHVSK; cysteine pairing not given here; also: lantibiotic, modifications not placed; UniProt P13068 24-57, looked up) | 4 | 0 | 13 | 8 | 4 | comparable efficacy | drastic increase in mortality | 0.005 | 0.009 | 0.019 | 0.005 | 0.009 | 0.019 | did not go fully into suspension | mortality ([6]; unpurified, in dH2O, 0.152 mg/mL): showed mortality
Nisin Z: Nisin Z (26.7% pure) powder (Handry, Brussels, Belgium) (ITSISLCTPGCKTGALMGCNMKTATCNCSIHVSK; not fully specified (residues 2, 5, 33, bridges); cysteine pairing not given here; UniProt P29559 24-57, looked up) | – | – | – | – | – | comparable efficacy | drastic increase in mortality | 0.005 | 0.009 | 0.019 | 0.005 | 0.009 | 0.019 | went into suspension fully | loss of Nisin into the dH2O [7]: no loss of Nisin; toxicity ([6]; unpurified, in dH2O, 0.152 mg/mL to 0.038 mg/mL, 48 hours): no toxicity; zones of inhibition pre- and 48 hours post-dialysis ([5]; 2 kDa dialysis membrane purification): same sized zones; mortality rates (Vibrio parahaemolyticus): significantly lower mortality rates
aureocin A53 | – | – | – | – | – | – | – | – | – | – | – | – | – | – | stability [8]: stable under highly acidic conditions, high temperatures, and is not affected by proteases
post-dialyzed Nisin Z: Nisin Z subjected to a 48-hour dialysis treatment to reduce impurities (ITSISLCTPGCKTGALMGCNMKTATCNCSIHVSK; cysteine pairing not given here; also: lantibiotic nisin-Z, modifications not given here; UniProt P29559 24-57, looked up) | – | – | – | – | – | – | – | – | – | – | – | – | – | – | toxicity (brine shrimp): reduced toxicity
